Experimental data taken from patent publication US7767626B2, “3-arylphenyl sulfide derivative and insecticide and miticide” (Kumiai Chemical Industry Co., Ltd., priority 1998, dated 2010).
Read-outs that look alike come from different tables or passages of the source.

Experiments:
two-spotted spider mites = assay: Insecticidal test on two-spotted spider mites (Test Example 1); assay type: in vivo; details: Tetranychus urticae, 312 h, read-out: preventive value
Excerpt: Test Example 1 Insecticidal Test on Two-Spotted Spider Mites

[1] = wettable powder diluted to 500 ppm active ingredient, soybean seedlings inoculated with adult mites immersed, survivors counted after 13 days, Equation 1

SMILES	melting point	pest or weed control at 500 µg/mL (two-spotted spider mites; [1])	pest or weed control at 500 µg/mL (two-spotted spider mites; in Glycine max)
CCSc1cc(-c2ccc(Cl)cc2Cl)ccc1C#N	89 to 92 °C		
CSc1cc(-c2ccccc2)c(C#N)c(N)c1C#N [Comparative Compound 1, 2-amino-6-methylthio-4-phenyl-benzene-1,3-dicarbonitrile, reference compound]		0%	
CSc1cc(-c2ccccc2)c(C#N)c(N)c1[N+](=O)[O-] [Comparative Compound 2, 2-amino-6-phenyl-4-methylthio-3-nitrobenzonitrile, reference compound]		0%	
C=CCSc1cc(-c2ccc(C(F)(F)F)cc2)ccc1C#N [Compound I-42, 2-(2-propenylthio)-4-(4-trifluoromethylphenyl)benzonitrile]	89 to 90 °C		≥ 90%
CCOCOc1ccc(-c2ccc(C(F)(F)F)cc2)cc1SCC(F)(F)F [Compound I-213, [2-ethoxymethoxy-5-(4-trifluoromethylphenyl)phenyl] 2,2,2-trifluoroethyl sulfide]			≥ 90%
CCCSc1cc(-c2ccc(C(F)(F)F)cc2)c(F)cc1[N+](=O)[O-] [Compound I-221, [4-fluoro-2-nitro-5-(4-trifluoromethylphenyl)phenyl] propyl sulfide]	57 to 59 °C		≥ 90%
N#Cc1ccc(-c2n[nH]cc2C(F)(F)F)cc1SCC(F)(F)F [Compound V-639, 2-(2,2,2-trifluoroethylthio)-4-(4-trifluoromethylpyrazolyl)benzonitrile]	90 to 91 °C	≥ 90%	
N#Cc1ccc(-c2ccc(C(F)(F)F)cn2)cc1SCC1CC1 [I I-5, 2-cyclopropylmethylthio-4-(5-trifluoromethylpyridin-2-yl)benzonitrile]	135 to 136 °C	≥ 90%	
N#Cc1ccc(-c2ccc(Cl)s2)cc1SCC1CC1 [I V-5, 4-(5-chlorothiophen-2-yl)-2-cyclopropylmethylthiobenzonitrile]	123 to 124 °C	≥ 90%	
